Laboratory results published in US12006321B2, “Substituted pyrazolo[1,5-a]pyrimidines as apelin receptor agonists” (Sanford Burnham Prebys Medical Discovery Institute, priority 2017, dated 2024).

What follows are compounds tested against T1, human apelin receptor (APJ, APLNR) (Homo sapiens, UniProt P35414) (assay: cell-based cAMP assay (TR-FRET) in Chinese hamster ovary cells expressing the apelin receptor). Settings: EC50 = 50% of control (apelin-13, 1 nM) response; cAMP in CHO cells, 0.5 h incubation; read-out: Potency Category.
T1 construct: host or cells: Chinese hamster ovary (CHO) cells, stably integrated receptor
T1 sequence (P35414 1-380): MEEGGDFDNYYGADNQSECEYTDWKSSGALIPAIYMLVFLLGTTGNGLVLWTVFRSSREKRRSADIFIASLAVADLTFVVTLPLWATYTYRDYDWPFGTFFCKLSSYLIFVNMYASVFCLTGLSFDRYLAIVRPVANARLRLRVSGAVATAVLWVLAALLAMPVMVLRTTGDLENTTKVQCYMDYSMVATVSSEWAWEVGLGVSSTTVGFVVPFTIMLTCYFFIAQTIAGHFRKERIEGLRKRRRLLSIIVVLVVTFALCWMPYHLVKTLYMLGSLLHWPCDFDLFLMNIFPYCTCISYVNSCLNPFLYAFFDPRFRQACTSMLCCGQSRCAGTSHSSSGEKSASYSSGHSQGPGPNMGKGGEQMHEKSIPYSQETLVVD
Procedure: This example illustrates the biological activity of various compounds tested against the APJ receptor.
Commercially available cell lines were used to screen chemical libraries to identify compounds that potently and selectively activated the human apelin receptor. The assays disclosed herein were performed using cell lines from DiscoveX, Inc.
Biological activity was determined to the cell-based assay. This assay detects activation of the receptor by reporting on intracellular cyclic adenosine monophosphate (cAMP) level. Chinese hamster ovary cells engineered to express the stably integrated human appellant receptor (APJ, AGTRL-one, APLNR), pleaded into the wells of the microtiter plate. Cells were stimulated with […] to increase intracellular cyclic AMP. Immediately following, compounds were added to the range of final concentrations 0.0-100 μM, in DMSO (not to exceed a final DMSO concentration greater than 1% v/v), and allowed to incubate with the cells for 0.5 h. At the end of the incubation, cells were lysed to stop APJ signaling and cAMP was quantified using a commercially available competitive immunoassay kit that applies homogenous time-resolved florescence energy transfer (TR-FRET). The assay is based on the competition between a europium (Eu) chelate-labeled cAMP donor tracer and cellular cAMP for binding sites on a cAMP-specific monoclonal antibody labeled with an acceptor fluorophore. When antibodies are bound to the cAMP tracer light emissions at 320 nm stimulate the energy transfer from the donor to the acceptor, which in turn emits light at 665 nm. In the presence of competitive unlabeled cAMP (derived from the activity of the receptor or forskolin-stimulated production of cAMP), the labelled cAMP tracer is dissociated from the cAMP antibody, resulting in a loss of FRET signal. The amount of light emitted by the FRET is inversely proportional to the cAMP generated by the cell/receptor system. Potency and efficacy at APJ are reported in reference to the canonical APJ receptor agonist apelin-13 when tested at 1 nM.
Compound competency is reported as the effective concentration required to effect 50% (EC 50) of the control (apelin—13, 1 nM) response in micromole are (μM) units. Compound efficacy (% response) is reported as a percentage of the maximal apein-13 response at 1 nM (control). Potencies were calculated by fitting a four-point logistic curve to concentration response consisting of at least 10 discrete data points spanning effective range of the compounds in the cell-based assay that measures cAMP. In Table 1, the Potency Categories are A, B, C and D. Category A EC50>500 nM; Category B 200<EC50<500 nM; Category C 100<EC50<200 nM; Category D<100 nM.

Cc1ccc(Nc2cc(C(=O)O)nc3c(-c4c(C)cccc4C)c(C)nn23)cc1 [Compound 141, 3-(2,6-dimethylphenyl)-2-methyl-7-[(4-methylphenyl)amino]-8-hydropyrazolo[1,5-a]pyrimidine-5-carboxylic acid] and COc1ccc(Nc2cc(C(=O)O)nc3c(-c4c(C)cccc4C)c(C)nn23)cc1 [Compound 142, 3-(2,6-dimethylphenyl)-7-[(4-methoxyphenyl)amino]-2-methyl-8-hydropyrazolo[1,5-a]pyrimidine-5-carboxylic acid] cannot be ordered by EC50: > 500 nM for the first, > 500 nM for the second.

Cc1nn2c(C3CC3)cc(C(=O)O)nc2c1-c1ccccc1 [Compound 6, 7-cyclopropyl-2-methyl-3-phenyl-8-hydropyrazolo[1,5-a]pyrimidine-5-carboxylic acid] and Cc1cccc(C)c1-c1c(C)nn2c(C3CCCCC3)cc(C(=O)O)nc12 [Compound 155, 3-(2,6-dimethylphenyl)-7-cyclohexyl-2-methyl-8-hydropyrazolo[1,5-a]pyrimidine-5-carboxylic acid] cannot be ordered by EC50: > 500 nM for the first, > 500 nM for the second.

CCOC(=O)c1cc(C(C)C)n2nc(C)c(-c3c(F)cccc3OC)c2n1 [Compound 91, ethyl 3-(6-fluoro-2-methoxyphenyl)-2-methyl-7-(methylethyl)-8-hydropyrazolo[1,5-a]pyrimidine-5-carboxylate] and CCOC(=O)c1cc(C(C)C)n2nc(C)c(-c3c(F)cccc3F)c2n1 [Compound 105, ethyl 3-(2,6-difluorophenyl)-2-methyl-7-(methylethyl)-8-hydropyrazolo[1,5-a]pyrimidine-5-carboxylate] cannot be ordered by EC50: > 500 nM for the first, > 500 nM for the second.

First: CCOC(=O)c1cccc(C)c1-c1c(C)nn2c(C(C)C)cc(C(=O)O)nc12 [Compound 77, 3-[6-(ethoxycarbonyl)-2-methylphenyl]-2-methyl-7-(methylethyl)-8-hydropyrazolo[1,5-a]pyrimidine-5-carboxylic acid]
Second: CCOC(=O)c1cc(C(C)C)n2nc(C)c(-c3c(C)cccc3C(=O)OCC)c2n1 [Compound 67, ethyl 3-[2-(ethoxycarbonyl)-6-methylphenyl]-2-methyl-7-(methylethyl)-8-hydropyrazolo[1,5-a]pyrimidine-5-carboxylate]
The EC50 of the first is lower: 100 to 200 nM for the first, > 500 nM for the second. The first is the more potent here.

Cc1cccc(C)c1-c1c(C)nn2c(N3CCCC3)cc(C(=O)O)nc12 [Compound 123, 3-(2,6-dimethylphenyl)-2-methyl-7-pyrrolidinyl-8-hydropyrazolo[1,5-a]pyrimidine-5-carboxylic acid] and Cc1cccc(C)c1-c1c(C)nn2c(N3CCOCC3)cc(C(=O)O)nc12 [Compound 98, 3-(2,6-dimethylphenyl)-2-methyl-7-morpholin-4-yl-8-hydropyrazolo[1,5-a]pyrimidine-5-carboxylic acid] cannot be ordered by EC50: > 500 nM for the first, > 500 nM for the second.

CCOC(=O)c1cc(C)n2nc(C)c(-c3c(C)cccc3C)c2n1 [Compound 56, ethyl 3-(2,6-dimethylphenyl)-2,7-dimethyl-8-hydropyrazolo[1,5-a]pyrimidine-5-carboxylate] and CCOC(=O)c1cc(C(C)C)n2nc(C)c(-c3c(C)cccc3C)c2n1 [Compound 39, ethyl 3-(2,6-dimethylphenyl)-2-methyl-7-(methylethyl)-8-hydropyrazolo[1,5-a]pyrimidine-5-carboxylate] cannot be ordered by EC50: > 500 nM for the first, > 500 nM for the second.

CCCc1cc(C(=O)O)nc2c(-c3c(C)cccc3C)c(C)nn12 [Compound 55, 3-(2,6-dimethylphenyl)-2-methyl-7-propyl-8-hydropyrazolo[1,5-a]pyrimidine-5-carboxylic acid] and CCc1cc(C(=O)O)nc2c(-c3c(C)cccc3C)c(C)nn12 [Compound 72, 3-(2,6-dimethylphenyl)-7-ethyl-2-methyl-8-hydropyrazolo[1,5-a]pyrimidine-5-carboxylic acid] cannot be ordered by EC50: > 500 nM for the first, > 500 nM for the second.

Compared with Cc1cccc(C)c1-c1c(C)nn2c(C(C)C)cc(C(=O)NO)nc12 [Compound 75, 3-(2,6-dimethylphenyl)-2-methyl-7-(methylethyl)-8-hydropyrazolo[1,5-a]pyrimidine-5-carbohydroxamic acid], Cc1cccc(C)c1-c1c(C)nn2c(C(C)C)cc(N)nc12 [Compound 110, 3-(2,6-dimethylphenyl)-2-methyl-7-(methylethyl)-8-hydropyrazolo[1,5-a]pyrimidine-5-ylamine] is higher in EC50: 100 to 200 nM for the first, > 500 nM for the second. The first is the more potent here.

Compared with Cc1ccc(-c2c(C)nn3c(C(C)C)cc(C(=O)O)nc23)cc1 [Compound 5, 2-methyl-7-(methylethyl)-3-(4-methylphenyl)-8-hydropyrazolo[1,5-a]pyrimidine-5-carboxylic acid], Cc1cccc(Cl)c1-c1c(C)nn2c(C(C)C)cc(C(=O)O)nc12 [Compound 93, 3-(6-chloro-2-methylphenyl)-2-methyl-7-(methylethyl)-8-hydropyrazolo[1,5-a]pyrimidine-5-carboxylic acid] is lower in EC50: > 500 nM for the first, 200 to 500 nM for the second.

CCCc1c(C)c(C(=O)OCC)nc2c(-c3c(C)cccc3C)c(C)nn12 [Compound 54] and COC(=O)c1cc(Cl)n2nc(C)c(-c3c(C)cccc3C)c2n1 [Compound 159, methyl 3-(2,6-dimethylphenyl)-7-chloro-2-methyl-8-hydropyrazolo[1,5-a]pyrimidine-5-carboxylate] cannot be ordered by EC50: > 500 nM for the first, > 500 nM for the second.

Compared with Cc1cc(F)cc(C)c1-c1c(C)nn2c(C(C)C)cc(C(=O)O)nc12 [Compound 50, 3-(4-fluoro-2,6-dimethylphenyl)-2-methyl-7-(methylethyl)-8-hydropyrazolo[1,5-a]pyrimidine-5-carboxylic acid], Cc1cc(Cl)cc(C)c1-c1c(C)nn2c(C(C)C)cc(C(=O)O)nc12 [Compound 70, 3-(4-chloro-2,6-dimethylphenyl)-2-methyl-7-(methylethyl)-8-hydropyrazolo[1,5-a]pyrimidine-5-carboxylic acid] is higher in EC50: 100 to 200 nM for the first, > 500 nM for the second.

CNc1cc(C(=O)O)nc2c(-c3c(C)cccc3C)c(C)nn12 [Compound 102, 3-(2,6-dimethylphenyl)-2-methyl-7-(methylamino)-8-hydropyrazolo[1,5-a]pyrimidine-5-carboxylic acid] and Cc1cccc(C)c1-c1c(C)nn2c(C)cc(C(=O)O)nc12 [Compound 57, 3-(2,6-dimethylphenyl)-2,7-dimethyl-8-hydropyrazolo[1,5-a]pyrimidine-5-carboxylic acid] cannot be ordered by EC50: > 500 nM for the first, > 500 nM for the second.

Cc1cccc(C)c1-c1c(C(C)C)nn2c(C(C)C)cc(C(=O)O)nc12 [Compound 80, 2,7-bis(methylethyl)-3-(2,6-dimethylphenyl)-8-hydropyrazolo[1,5-a]pyrimidine-5-carboxylic acid] and Cc1nn2c(C(C)C)cc(C(=O)O)nc2c1-c1c(Cl)cccc1Cl [Compound 115, 3-(2,6-dichlorophenyl)-2-methyl-7-(methylethyl)-8-hydropyrazolo[1,5-a]pyrimidine-5-carboxylic acid] cannot be ordered by EC50: > 500 nM for the first, > 500 nM for the second.

Cc1nn2c(C(C)C)cc(C(=O)O)nc2c1-c1c(F)cccc1C#N [Compound 120, 3-(2-cyano-6-fluorophenyl)-2-methyl-7-(methylethyl)-8-hydropyrazolo[1,5-a]pyrimidine-5-carboxylic acid] and CCOC(=O)c1cc(C(C)C)n2nc(C)c(-c3c(C)cc(OC)cc3C)c2n1 [Compound 46, ethyl 3-(4-methoxy-2,6-dimethylphenyl)-2-methyl-7-(methylethyl)-8-hydropyrazolo[1,5-a]pyrimidine-5-carboxylate] cannot be ordered by EC50: > 500 nM for the first, > 500 nM for the second.
